Experiments:
CLIC1 [1] = target: T1, CLIC1 (Homo sapiens, UniProt O00299); conditions: 1 mM GSH, 250 µM NADPH, 0.5 µg/mL yeast GR, 10 µM CLIC, 5 mM potassium phosphate pH 7, 1 mM EDTA, 37 °C
CLIC4 [2] = target: T2, CLIC4 (Homo sapiens, UniProt Q9Y696); assay: HEDS assay coupled to glutathione reductase, NADPH consumption at […] nm, Lineweaver-Burk; assay type: biochemical; conditions: 1 mM GSH, 250 µM NADPH, 0.5 µg/mL yeast GR, 10 µM CLIC, 5 mM potassium phosphate pH 7, 1 mM EDTA, 37 °C
T2 construct: recombinant, E. coli, pGEX-4T-1 N-terminal GST tag cut off with thrombin, SEC purified
T2 sequence (Q9Y696 whole entry): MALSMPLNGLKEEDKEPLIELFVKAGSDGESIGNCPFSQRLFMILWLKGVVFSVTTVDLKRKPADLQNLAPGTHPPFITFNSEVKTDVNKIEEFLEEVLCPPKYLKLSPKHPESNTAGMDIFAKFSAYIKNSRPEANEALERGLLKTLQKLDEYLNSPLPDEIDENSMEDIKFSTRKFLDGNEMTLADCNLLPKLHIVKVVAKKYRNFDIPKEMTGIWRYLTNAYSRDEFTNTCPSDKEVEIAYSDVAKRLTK

CLIC3 [3] = target: T3, CLIC3 (Homo sapiens, UniProt O95833); assay: as above; assay type: biochemical; conditions: 1 mM GSH, 250 µM NADPH, 0.5 µg/mL yeast GR, 10 µM CLIC, 5 mM potassium phosphate pH 7, 1 mM EDTA, 37 °C
T3 construct: recombinant, E. coli BL21(DE3), pET-28a His-tag cut off with thrombin, Ni-NTA and SEC purified
T3 sequence (O95833 whole entry): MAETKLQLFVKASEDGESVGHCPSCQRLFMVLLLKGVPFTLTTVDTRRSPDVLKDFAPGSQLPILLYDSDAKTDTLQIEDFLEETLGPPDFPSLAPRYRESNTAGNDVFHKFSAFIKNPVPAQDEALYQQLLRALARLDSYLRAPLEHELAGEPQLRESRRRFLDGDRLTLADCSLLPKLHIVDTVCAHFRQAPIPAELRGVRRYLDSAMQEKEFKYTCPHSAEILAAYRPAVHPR

CLIC3 [4] = target: T3, CLIC3; assay: inhibition of HEDS reductase activity, GR-coupled NADPH consumption at […] nm; assay type: biochemical; conditions: 10 µM inhibitor, 10 µM CLIC, 1 h preincubation at 4 °C; 1 mM HEDS, 1 mM GSH, 250 µM NADPH, 0.5 µg/mL GR, pH 7, 37 °C
CLIC1 [5] = target: T1, CLIC1; assay: as above; assay type: biochemical; set-up: recombinant, E. coli BL21(DE3), pET-28a His-tag cut off with thrombin, Ni-NTA and SEC purified; conditions: 10 µM inhibitor, 10 µM CLIC, 1 h preincubation at 4 °C; 1 mM HEDS, 1 mM GSH, 250 µM NADPH, 0.5 µg/mL GR, pH 7, 37 °C
CLIC4 [6] = target: T2, CLIC4; assay: as above; assay type: biochemical; conditions: 10 µM inhibitor, 10 µM CLIC, 1 h preincubation at 4 °C; 1 mM HEDS, 1 mM GSH, 250 µM NADPH, 0.5 µg/mL GR, pH 7, 37 °C

Compound | Km (CLIC1 [1]) [µM] | Km (CLIC4 [2]) [µM] | Km (CLIC3 [3]) [µM] | residual activity (%) at 10 μM (CLIC3 [4]) | residual activity (%) at 10 μM (CLIC1 [5]) | residual activity (%) at 10 μM (CLIC4 [6])
OCCSSCCO [HEDS] | 274 | 345 | 266 |  |  | 
CO[C@H]1C[C@@H]2CC[C@@H](C)[C@@](O)(O2)C(=O)C(=O)N2CCCC[C@H]2C(=O)O[C@H]([C@H](C)C[C@@H]2CC[C@@H](O)[C@H](OC)C2)CC(=O)[C@H](C)/C=C(\C)[C@@H](O)[C@@H](OC)C(=O)[C@H](C)C[C@H](C)/C=C/C=C/C=C/1C [rapamycin] |  |  |  | Both rapamycin and amphotericin B caused inhibition of the enzymatic activity of all three proteins | with CLIC1′s activity virtually abolished by all three drugs | Both rapamycin and amphotericin B caused inhibition of the enzymatic activity of all three proteins
C[C@@H]1[C@H](O)[C@@H](C)/C=C/C=C/C=C/C=C/C=C/C=C/C=C/[C@H](O[C@@H]2O[C@H](C)[C@@H](O)[C@H](N)[C@@H]2O)C[C@@H]2O[C@](O)(C[C@@H](O)C[C@@H](O)[C@H](O)CC[C@@H](O)C[C@@H](O)CC(=O)O[C@H]1C)C[C@H](O)[C@H]2C(=O)O [amphotericin B] |  |  |  | Both rapamycin and amphotericin B caused inhibition of the enzymatic activity of all three proteins | with CLIC1′s activity virtually abolished by all three drugs | Both rapamycin and amphotericin B caused inhibition of the enzymatic activity of all three proteins

— PMC10526857, “In Vitro Enzymatic Studies Reveal pH and Temperature Sensitive Properties of the CLIC Proteins” (Biomolecules, 2023)
